For 37 molecules, EC50 results are on record in patent US20120065187A1 (ALCON RESEARCH, LTD, priority 2008, published 2012).

The target in one experiment is T1, human H4 (Homo sapiens, UniProt Q9H3N8).
T1 construct: host or cells: CHO-K1
Kind of experiment: In vitro histamine receptor cell-based assay (aequorin bioluminescence), H4 antagonism. The following applies: CHO-K1 cells expressing human H4, aequorin and Gα16; histamine at EC80; read-out: H4 Antagonist EC50. In outline: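 Antagonism read as loss of aequorin luminescence after histamine (EC80 final) addition, following 15 min room-temperature compound pretreatment of coelenterazine-h-loaded (5 μM) CHO-K1 cells co-expressing human H4 and Gα16. Efficacy given relative to 10 μM JNJ7777120; agonism excluded in separate no-histamine runs.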

The next experiment deals with T2, human H1 (Homo sapiens, UniProt P35367).
T2 construct: host or cells: CHO-K1
As to the kind of experiment: In vitro histamine receptor cell-based assay (aequorin bioluminescence), H1 antagonism. The following applies: CHO-K1 cells expressing human H1 and aequorin; histamine at EC80; read-out: H1 Antagonist EC50. The essentials: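 Antagonism read as drop in aequorin luminescence after histamine challenge at a predetermined EC80, following 15 min compound pretreatment at room temperature. Cells: CHO-K1 carrying human H1, or H4 with Gα16; signal as AUC or amplitude, normalised to 10 μM diphenhydramine (H1) or JNJ7777120 (H4).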

SMILES strings stand for the structures. Counter-ions that a name gives are not always drawn.

T1 sequence (Q9H3N8 whole entry): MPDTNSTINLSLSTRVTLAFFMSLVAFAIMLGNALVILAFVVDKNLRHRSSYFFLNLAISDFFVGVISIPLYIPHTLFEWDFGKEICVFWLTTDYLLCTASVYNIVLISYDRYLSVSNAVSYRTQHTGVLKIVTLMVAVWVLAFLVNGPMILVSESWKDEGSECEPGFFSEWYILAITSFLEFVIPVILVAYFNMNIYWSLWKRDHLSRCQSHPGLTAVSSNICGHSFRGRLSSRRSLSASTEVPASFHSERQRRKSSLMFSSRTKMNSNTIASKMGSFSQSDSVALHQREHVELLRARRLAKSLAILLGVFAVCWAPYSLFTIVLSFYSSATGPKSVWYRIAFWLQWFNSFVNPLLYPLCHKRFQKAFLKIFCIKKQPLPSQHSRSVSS
T2 sequence (P35367 whole entry): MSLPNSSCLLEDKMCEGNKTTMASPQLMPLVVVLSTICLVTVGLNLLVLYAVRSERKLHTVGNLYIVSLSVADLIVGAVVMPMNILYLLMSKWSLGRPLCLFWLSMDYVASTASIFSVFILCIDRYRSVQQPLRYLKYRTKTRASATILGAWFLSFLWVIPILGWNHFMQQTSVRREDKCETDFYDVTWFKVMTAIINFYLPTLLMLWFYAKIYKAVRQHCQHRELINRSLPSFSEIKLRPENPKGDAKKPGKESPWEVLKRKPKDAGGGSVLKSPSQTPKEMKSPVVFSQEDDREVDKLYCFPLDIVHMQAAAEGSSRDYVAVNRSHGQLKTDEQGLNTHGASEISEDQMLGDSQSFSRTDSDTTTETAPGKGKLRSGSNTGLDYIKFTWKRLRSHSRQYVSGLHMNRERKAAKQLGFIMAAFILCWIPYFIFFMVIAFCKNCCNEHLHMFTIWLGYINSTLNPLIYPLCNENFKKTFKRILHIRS

For `Cc1nc2c3ccc(Cl)cc3nc(N3CCN(C)CC3)n2n1` [Example 105, 8-Chloro-2-methyl-5-(4-methylpiperazin-1-yl)-[1,2,4]triazolo[1,5-c]quinazoline], the EC50 on human H4 was less than 10 µM; on human H1 it was greater than 10 µM.
The like results for `Cc1nc2c(N3CCNCC3)nc3ccc(Cl)cc3c2o1` [Example 144, 8-chloro-2-methyl-4-(piperazin-1-yl)oxazolo[4,5-c]quinoline] were, in that order, less than 10 µM and greater than 10 µM.
The like results for `CCc1nc2c3cc(Cl)ccc3nc(N3CCN(C)CC3)n2n1` [Example 114, 9-Chloro-2-ethyl-5-(4-methylpiperazin-1-yl)-[1,2,4]triazolo[1,5-c]quinazoline] were, in that order, less than 10 µM and greater than 10 µM.
On the same counts, the results for `CN1CCN(c2nc3ccc(Cl)cc3c3ocnc23)CC1` [Example 141, 8-chloro-4-(4-methylpiperazin-1-yl)oxazolo[4,5-c]quinoline] are less than 10 µM and less than 10 µM.
Turning to `FC(F)(F)c1ccc2c(c1)nc(N1CCNCC1)c1nnnn12` [Example 30, 4-(piperazin-1-yl)-7-(trifluoromethyl)tetrazolo[1,5-a]quinoxaline hydrochloride], the EC50 on human H4 is less than 10 µM; at human H1, greater than 10 µM.
On the same counts, the results for `COc1ccc2nc(N3CCNCC3)n3nc(C)nc3c2c1` [Example 102, 9-Methoxy-2-methyl-5-(piperazin-1-yl)-[1,2,4]triazolo[1,5-c]quinazoline] are greater than 10 µM and greater than 10 µM.
On the same counts, the results for `Cc1nc2c3ccc(F)cc3nc(N3CCN(C)CC3)n2n1` [Example 107, 8-Fluoro-2-methyl-5-(4-methylpiperazin-1-yl)-[1,2,4]triazolo[1,5-c]quinazoline] are less than 10 µM and greater than 10 µM.
On the same counts, the results for `CN1CCN(c2nc3cc(C(F)(F)F)ccc3c3conc23)CC1` [Example 220, 4-(4-Methylpiperazinyl)-7-(trifluoromethyl)isoxazolo[3,4-c]quinoline] are less than 10 µM and greater than 10 µM.
Take `Cc1nc2c3cc(Cl)ccc3nc(N3CCN4CCCC4C3)n2n1` (centres unmarked) [Example 245, 9-chloro-5-(hexahydropyrrolo[1,2-a]pyrazin-2(1H)-yl)-2-methyl-[1,2,4]triazolo[1,5-c]quinazoline]: the half-maximal effective concentration (EC50) on human H4 and on human H1 was less than 10 µM each time.
For `FC(F)(F)c1ccc2nc(N3CCNCC3)c3nccn3c2c1` [Example 178, 4-(piperazin-1-yl)-8-(trifluoromethypimidazo[1,2-a]quinoxaline hydrochloride], the values for the EC50 at human H4 and at human H1 were less than 10 µM and greater than 10 µM, respectively.
The like results for `Brc1ccc2c(c1)nc(N1CCNCC1)c1nnnn12` [Example 194, 7-bromo-4-(piperazin-1-yl)tetrazolo[1,5-a]quinoxaline hydrochloride] were, in that order, less than 10 µM and greater than 10 µM.
The like results for `CN1CC2CN(c3nc4ccc(Cl)cc4n4cnnc34)CC2C1` (centres unmarked) [Example 62, 8-chloro-4-(5-methylhexahydropyrrolo[3,4-c]pyrrol-2(1H)-yl)-[1,2,4]triazolo[4,3-a]quinoxaline] were, in that order, less than 10 µM and greater than 10 µM.
The like results for `CN1CCN(c2nc3cc(C(F)(F)F)ccc3n3nnnc23)CC1` [Example 28, 4-(4-methylpiperazin-1-yl)-7-(trifluoromethyl)tetrazolo[1,5-a]quinoxaline] were, in that order, less than 10 µM and greater than 10 µM.
For `CC(C)c1nnc2c(N3CCN(C)CC3)nc3ccc(Cl)cc3n12` [Example 87, 8-chloro-1-isopropyl-4-(4-methylpiperazin-1-yl)-[1,2,4]triazolo[4,3-a]quinoxaline], the EC50 on human H4 is less than 10 µM; on human H1, greater than 10 µM.
On the same counts, the results for `Fc1cc2c(cc1C(F)(F)F)nc(N1CCNCC1)c1nnnn12` [Example 200, 8-fluoro-4-(piperazin-1-yl)-7-(trifluoromethyl)tetrazolo[1,5-a]quinoxaline] are less than 10 µM and greater than 10 µM.
On the same counts, the results for `Cc1cn2c(n1)c(N1CCN(C)CC1)nc1cc(Cl)ccc12` [Example 11, 7-Chloro-2-methyl-4-(4-methylpiperazin-1-yl)imidazo[1,2-a]quinoxaline] are less than 10 µM and greater than 10 µM.
The like results for `Fc1cc2c(cc1Br)nc(N1CCNCC1)c1nncn12` [Example 198, 7-bromo-8-fluoro-4-(piperazin-1-yl)-[1,2,4]triazolo[4,3-a]quinoxaline] were, in that order, less than 10 µM and greater than 10 µM.
For the molecule `CNCCOc1nc2ccc(Cl)cc2n2cnnc12` [Example 80, 2-(8-chloro-[1,2,4]triazolo[4,3-a]quinoxalin-4-yloxy)-N-methylethanamine], the 50% effective concentration (EC50) at human H4 and at human H1 was greater than 10 µM each time.
As for `Clc1ccc2nc(N3CC4CC3CN4)c3nncn3c2c1` (centres unmarked) [Example 67, 4-(2,5-diazabicyclo[2.2.1]heptan-2-yl)-8-chloro-[1,2,4]triazolo[4,3-a]quinoxaline], the figures for the concentration giving a half-maximal response (EC50) at human H4 and at human H1 were less than 10 µM and greater than 10 µM, respectively.
On the same counts, the results for `Cc1cn2c(n1)c(N1CCNCC1)nc1ccc(Cl)cc12` [Example 10, 8-Chloro-2-methyl-4-(piperazin-1-yl)imidazo[1,2-a]quinoxaline] are greater than 10 µM and greater than 10 µM.
The like results for `Cc1cc2c(cc1F)nc(N1CCN(C)CC1)c1nncn12` [Example 34, 7-fluoro-8-methyl-4-(4-methylpiperazin-1-yl)-[1,2,4]triazolo[4,3-a]quinoxaline] were, in that order, less than 10 µM and greater than 10 µM.
The like results for `NCCNc1nc2ccc(Cl)cc2n2cnnc12` [Example 70, N^1-(8-chloro-[1,2,4]triazolo[4,3-a]quinoxalin-4-yl)ethane-1,2-diamine] were, in that order, greater than 10 µM and greater than 10 µM.
In the case of `CCCc1ccc2nc(N3CCN(C)CC3)c3nncn3c2c1` [Example 175, 4-(4-methylpiperazin-1-yl)-8-propyl-[1,2,4]triazolo[4,3-a]quinoxaline], the concentration giving a half-maximal response (EC50) on human H4 was less than 10 µM; on human H1 it was greater than 10 µM.
On the same counts, the results for `C=Cc1ccc2nc(N3CCN(C)CC3)n3nc(C)nc3c2c1` [Example 137, 2-methyl-5-(4-methylpiperazin-1-yl)-9-vinyl-[1,2,4]triazolo[1,5-c]quinazoline] are less than 10 µM and greater than 10 µM.
Regarding `Cc1nc2c3cc(C(F)(F)F)c(Cl)cc3nc(N3CCNCC3)n2n1` [Example 123, 8-chloro-2-methyl-5-(piperazin-1-yl)-9-(trifluoromethyl)-[1,2,4]triazolo[1,5-c]quinazoline], the concentration giving a half-maximal response (EC50) is less than 10 µM on human H4 and greater than 10 µM on human H1.
In the case of `CN1CCC(c2nc3ccc(Cl)cc3n3cnnc23)CC1` [Example 4, 8-Chloro-4-(1-methylpiperidin-4-yl)-[1,2,4]triazolo[4,3-a]quinoxaline], the concentration giving a half-maximal response (EC50) at human H4 is less than 10 µM; at human H1, greater than 10 µM.
On the same counts, the results for `CN1CCN(c2nc3ccc(C(F)(F)F)cc3n3ccnc23)CC1` [Example 177] are less than 10 µM and greater than 10 µM.
The like results for `C/C=C/c1ccc2nc(N3CCN(C)CC3)c3nncn3c2c1` [Example 174, (E)-4-(4-methylpiperazin-1-yl)-8-(prop-1-enyl)-[1,2,4]triazolo[4,3-a]quinoxaline] were, in that order, less than 10 µM and greater than 10 µM.
For `Brc1ccc2nc(N3CCNCC3)c3nocc3c2c1` [Example 223, 8-bromo-4-(piperazin-1-yl)isoxazolo[3,4-c]quinoline], the EC50 at human H4 and on human H1 was less than 10 µM each time.
For `Cc1nc2c3ccc(F)cc3nc(N3CCNCC3)n2n1` [Example 108, 8-Fluoro-2-methyl-5-(piperazin-1-yl)-[1,2,4]triazolo[1,5-c]quinazoline], the EC50 at human H4 and at human H1 was greater than 10 µM throughout.
Consider `Clc1ccc2nc(N3CCNCC3)c3ncoc3c2c1` [Example 142, 8-Chloro-4-piperazinyl-1,3-oxazolo[4,5-c]quinoline], for which the figures for the half-maximal effective concentration (EC50) at human H4 and at human H1 were less than 10 µM and greater than 10 µM, respectively.
On the same counts, the results for `CN1CCN(c2nc3ccc(C(F)(F)F)cc3c3cn(C)nc23)CC1` [Example 155, 2-Methyl-4-(4-methylpiperazinyl)-8-(trifluoromethyl)pyrazolo[3,4-c]quinoline] are less than 10 µM and greater than 10 µM.
On to `Cc1nc2c3ccc(C(F)(F)F)cc3nc(N3CCNCC3)n2n1` [Example 110, 2-Methyl-5-(piperazin-1-yl)-8-(trifluoromethyl)-[1,2,4]triazolo[1,5-c]quinazoline], for which the 50% effective concentration (EC50) at human H4 was less than 10 µM; at human H1, greater than 10 µM.
Consider `NC1CCN(c2nc3ccc(Cl)cc3n3cnnc23)C1` (centres unmarked) [Example 59, 1-(8-chloro-[1,2,4]triazolo[4,3-a]quinoxalin-4-yl)pyrrolidin-3-amine], for which the figures for the half-maximal effective concentration (EC50) at human H4 and at human H1 were less than 10 µM and greater than 10 µM, respectively.
On the same counts, the results for `Clc1ccc2nc(N3CC4CNCC4C3)c3nncn3c2c1` (centres unmarked) [Example 69, 8-chloro-4-(hexahydropyrrolo[3,4-c]pyrrol-2(1H)-yl)-[1,2,4]triazolo[4,3-a]quinoxaline] are greater than 10 µM and greater than 10 µM.
Take `CN1CCN(c2nc3cc(Cl)ccc3n3nnnc23)CC1` [Example 17, 7-Chloro-4-(4-methylpiperazin-1-yl)tetrazolo[1,5-a]quinoxaline]: the EC50 on human H4 was less than 10 µM; at human H1 it was greater than 10 µM.
On the same counts, the results for `CCc1nc2c3cc(Cl)ccc3nc(N3CCNCC3)n2n1` [Example 115, 9-Chloro-2-ethyl-5-(piperazin-1-yl)-[1,2,4]triazolo[1,5-c]quinazoline] are less than 10 µM and greater than 10 µM.

As usually defined, the EC50 is the concentration needed to bring the measured effect to its halfway point.
